Key:
SW480 cells [1] = test: apoptosis assay, sub-G1 analysis (propidium iodide, flow cytometry); format: cell-based, human; details: for sub-G1 fraction: dose dependent, over untreated controls
Description: Apoptotic cells were quantified by sub-G1 analysis. Cells were seeded at a density of 2.5×10^5 to 5×10^5 in a 6-well plate and treated for 48-72 hours. After treatment, adherent cells were trypsinized and collected along with floating cells, washed with PBS and fixed in 70% ethanol. Cells were then incubated in a Phosphate-citric acid buffer (0.2 M Na2HPO4+0.1 M Citric Acid, pH 7.8) at room temperature for 5 minutes, spun down and resuspended for staining with 50 μg/mL propidium iodide (PI) in the presence of 250 μg/mL pancreatic ribonuclease (RNase A). Sub-G1 analyses were performed using an Epics Elite Epics flow cytometer (Coulter-Beckman).
(§1) Cells were seeded out at 1×10^6 cells/well on six well plates and treated with CB002 and Analog 11 at ranging doses with DMSO controls. Cells were harvested after 72 hours of treatment, all cells including floating cells were fixed with ethanol and stained with Propidium Iodide and then analyzed using Epics Elite flow cytometer to measure the DNA content of the stained cells.

HCT116 p53-null cells = test: FACS sub-G1 analysis; format: cell-based, human; details: 72 hours, dose dependent, over untreated controls
Description: as §1

[2] = test system: p53 pathway proteins in SW480 cells; test: Western blot of p53, p53 targets, apoptosis and autophagy markers; format: cell-based, human; details: for Noxa expression: 24 hour, 100 μM CB002, 25 NM Analog 4, 100 μM Analog 11; for mutant p53 protein level: varying doses, anti-p53 (DO-1)
Description: (§2) After treatment, cells were harvested by trypsinization, washed with PBS, and lysed with RIPA buffer (Sigma-Aldrich) for 30 minutes to 1 hour at 4° C. Protein lysates were spun down and supernatant was collected. Protein quantification was performed using a Pierce™ BCA Protein Assay Kit (Thermo Fisher Scientific). 1×NuPAGE® LDS sample buffer (Thermo Fisher Scientific) and 2-Mercaptoethanol as the reducing agent (Sigma-Aldrich) were added to protein lysates, followed by boiling for 15 minutes at 95° C. Equal total protein amounts samples were loaded into NuPAGE™ Novex™ 4-12% Bis-Tris Protein Gels (1.5 mm, Thermo Fisher Scientific) and gel eletrophoresis was performed with NuPAGE™ MES SDS Running Buffer. Proteins were transferred onto an Immobilon-P membrane (PVDF, EMD Millipore) using a Bio-Rad system with a 10% Tris-Glycine and 10% methanol transfer buffer diluted in distilled and deionized water. After transfer, membranes were blocked with 10% milk in TBST solution and then incubated overnight with primary antibody, washed with TBST and incubated with secondary antibody for 1 hour. Incubations were performed in 5% milk in TBST solution. Signal was detected by using a chemiluminescent detection kit, followed by autoradiography. The following antibodies were used: p53 (DO-1, 1:1000, Santa Cruz), p73 (1:1000, Bethyl Laboratories), p21 and NOXA (1:250, EMD Millipore), DR5, FADD, cleaved caspase 3, cleaved caspase 8, cleaved PARP, and LC3B (1:1000, Cell Signaling), and β-actin (1:10000, Sigma).
(§3) Proteins were isolated using NP40 Lysis Buffer (20 mmol/L Tris-HCl (pH 7.4), 150 mmol/L NaCl, 5 mmol/L EDTA, 50 mmol/L NaF, 1 mmol/L glycerophosphate, 5 mmol/L Na4P2O7, 0.5% NP40, and complete protease inhibitor cocktail (Roche)) and electrophoresed through 4-12% SDS-PAGE followed by semi-dry transfer to PVDF membranes. The PVDF membranes were incubated with different antibodies including p21 (OP64-100UG, EMD Millipore (world wide web at emdmillipore.com/US/en/product/Antip21WAF1-(Ab-1)-Mouse-mAb-(EA10), EMD_BIO-OP64)), PUMA (12450S, Cell Signaling Technology, world wide web at cellsignal.com/products/primary-antibodies/puma-d30c10-rabbit-mab/12450), DR5 (3696S, Cell Signaling Technology, world wide web at cellsignal.com/products/primary-antibodies/dr5-antibody/3696?N=4294956287&Ntt=3696s&fromPage=plp& requestid=541668), p53(sc-126, Santa Cruz, world wide web at scbt.com/scbt/fr/product/p53-antibody-do-1), and RAN (610341, BD Transduction Laboratories, world wide web at bdbiosciences.com/us/reagents/research/antibodies-buffers/cell-biologyreagents/cell-biology-antibodies/purified-mouse-anti-ran-20ran/p/610341) in blocking buffer at 4° C. overnight. Bound antibody will be detected using IRDye secondary antibodies (LI-COR Biosciences,) in Odyssey blocking buffer for 1 hour then imaged using the ODYSSEY infrared imaging system.

[3] = test system: wild-type p53 and p53 targets in HCT116 cells; test: Western blot of p53 and p53 targets; format: cell-based, human; details: for wild-type p53 protein level: 24 hours, increasing dose
Description: as §2, §3

[4] = test system: p53 pathway proteins in p73 knockdown DLD-1 cells; test: Western blot of p53 targets; format: cell-based, human; details: for p21 expression: 8 and 24 hours
Description: as §2, §3

[5] = test system: p53 targets in HCT116 p53-null cells; test: Western blot of p53 targets; format: cell-based, human
Description: as §2, §3

SW480 cells [6] = test: CellTiter-Glo luminescent cell viability assay; format: cell-based, human; details: 24 hours
[7] = test system: MRC5 normal lung fibroblasts; test: CellTiter-Glo luminescent cell viability assay; format: cell-based; details: Homo sapiens, MRCS (normal), 72 hours, GraphPad
Description: (§4) Cells were seeded in 96-well plates at a density of 5×10^3 cells per well. 20 μL of CellTiter-Glo® Reagent was added directly to the wells, following the manufacturer's protocol, and bioluminescence signal was determined using an IVIS imaging system.
(§5) To begin establishing the potential of CB002 as a candidate therapeutic agent, its therapeutic index was determined by treating cancer (DLD-1, SW480, and RXF393) and normal (WI38 and MRC5) cell lines with concentrations of CB002 ranging from 0-500 μM for a period of 72 hours and assessing cell viability by the CellTiter-Glo® luminescence assay (see, FIG. 2). CB002 has a significant therapeutic index among the cells tested.

[8] = test system: RXF393 renal cancer cells; test: CellTiter-Glo luminescent cell viability assay; format: cell-based; details: Homo sapiens, RXF 393; RXF393, 72 hours, GraphPad
Description: as §4, §5

[9] = target: T1, endogenous R175H p53 in RXF393 renal cancer cells (Homo sapiens, UniProt P04637, R175H); test: Western blot of mutant p53; format: cell-based
T1 construct: RXF393 renal cancer cells that endogenously express R175H p53; endogenous in cells; host or cells: RXF393 renal cancer cells
Description: as §2, with “The following antibodies were used: p53 (DO-1, 1:1000, Santa Cruz), p73 (1:1000, Bethyl Laboratories), p21 and NOXA (1:250, EMD Millipore), DR5, FADD, cleaved caspase 3, cleaved caspase 8, cleaved PARP, and LC3B (1:1000, Cell Signaling), and β-actin (1:10000, Sigma).” left out

**Q.** Which sub-G1 fraction (SW480 cells [1]; 72 hours) does the source give for Cn1c(=O)c2c(nc(Nc3ccccc3)n2C)n(C)c1=O [Analog 11, 8-anilino-1,3,7-trimethyl-3,7-dihydro-1Hpurine-2,6-dione] here?
**A.** The sub-G1 fraction was “increased cells in sub-G1 fraction”.

**Q.** What about the sub-G1 fraction (HCT116 p53-null cells) of the same compound?
**A.** Its sub-G1 fraction is “increased cells in sub-G1 fraction”.

**Q.** And the Noxa expression [2]?
**A.** The Noxa expression was “Induction of Noxa expression”.

**Q.** And the “mutant p53 protein level” value ([2]; 24 hours)?
**A.** The value was “decrease moderately”.

**Q.** What about the PUMA expression ([3]; 8 and 24 hours) of the same compound?
**A.** Its PUMA expression is “increase only at 24 hours”.

**Q.** What about the p21 protein level ([3]; 8 and 24 hours) of the same compound?
**A.** Its p21 protein level is “increase moderately in a dose dependent fashion”.

**Q.** What about the “wild-type p53 protein level” value [3] of the same compound?
**A.** The value was “moderate increase in wild-type p53”.

**Q.** What about the p21 expression [4] of the same compound?
**A.** Its p21 expression is “absent”.

**Q.** What about the PUMA expression ([4]; 8 hours, over control) of the same compound?
**A.** Its PUMA expression is “increased expression”.

**Q.** What about the PUMA expression ([4]; 24 hours) of the same compound?
**A.** Its PUMA expression is “reduction in PUMA”.

**Q.** What about the p21 protein level ([5]; 8 hours) of the same compound?
**A.** The p21 protein level was “increase moderately”.

**Q.** What about the PUMA protein level ([5]; 8 hours, 25 μmol/L and 50 μmol/L) of the same compound?
**A.** Its PUMA protein level is “appeared to increase”.

**Q.** What about the PUMA protein level ([5]; 24 hours) of the same compound?
**A.** Its PUMA protein level is “slight decrease”.

**Q.** And the p21 protein level ([5]; 24 hours)?
**A.** The p21 protein level was “no consistent difference”.

**Q.** And the “combination index with Irinotecan” value (SW480 cells [6]; 0-100 μM Irinotecan with 0-200 μM Analog 11, CompuSyn)?
**A.** Its value is “synergizes with Irinotecan”.

**Q.** Which IC50 [7] does the source give for Cn1c(=O)c2[nH]c(Nc3ccccc3)nc2n(C)c1=O [CB002, 8-anilino-1,3-dimethyl-3,7-dihydro-1H-purine-2,6-dione] here?
**A.** Its IC50 is 647 µM.

**Q.** And the IC50 [8]?
**A.** Its IC50 is 400 µM.

**Q.** And the sub-G1 content (SW480 cells [1]; 96 μM, 48 hours, parental SW480 (NOXA experiment), DMSO 4.5%)?
**A.** Its sub-G1 content is 19%.

**Q.** What about the sub-G1 population (SW480 cells [1]; 96 μM, 48 hours, DMSO control 8.7%) of the same compound?
**A.** The sub-G1 population was 32.6%.

**Q.** And the “increase of cells in sub-G1” value (SW480 cells [1]; 200 μM, 72 hours)?
**A.** The value was 20%.

**Q.** What about the sub-G1 fraction (SW480 cells [1]; 72 hours) of the same compound?
**A.** Its sub-G1 fraction is “increased cells in sub-G1 fraction”.

**Q.** And the sub-G1 fraction (HCT116 p53-null cells)?
**A.** The sub-G1 fraction was “increased cells in sub-G1 fraction”.

**Q.** And the Noxa protein expression ([2]; 50 μM and 96 μM)?
**A.** The Noxa protein expression was “increased”.

**Q.** And the “expression of p21 and DR5” value ([2]; 12, 25, and 50 μM, 16 hours)?
**A.** Its value is “increase the expression”.

**Q.** And the “p53 protein expression level (mutant p53)” value ([2]; 12, 25, and 50 μM, 16 hours, versus DMSO)?
**A.** Its value is “constant p53 protein expression levels”.

**Q.** What about the “cleaved PARP expression” value ([2]; 12, 25, and 50 μM, versus vehicle) of the same compound?
**A.** The value was “observed to increase”.

**Q.** And the “LC3B expression (autophagy marker)” value ([2]; 50 and 96 μM)?
**A.** Its value is “induce the expression of LC3B”.

**Q.** What about the Noxa expression [2] of the same compound?
**A.** Its Noxa expression is “Induction of Noxa expression”.

**Q.** And the “mutant p53 protein level” value ([2]; 24 hours)?
**A.** Its value is “decrease significantly”.

**Q.** And the “cleaved caspase 3 and cleaved PARP expression” value ([2]; DR5 siRNA knockdown, 50 and 96 μM)?
**A.** Its value is “continued to induce the expression”.

**Q.** And the “cleaved PARP expression” value ([2]; FADD knockdown cells, 24 hours)?
**A.** Its value is “able to induce the expression of cleaved PARP”.

**Q.** And the LC3B expression ([2]; NOXA knock-down cells, 50 and 96 μM)?
**A.** The LC3B expression was “failed to induce LC3B expression”.

**Q.** And the “c-caspase 3 and cleaved PARP expression” value ([2]; NOXA shRNA knockdown, 50 and 96 μM)?
**A.** Its value is “did not induce the expression of apoptotic markers”.

**Q.** And the PARP cleavage ([2]; atg5 siRNA knockdown, 16 and 24 hours)?
**A.** The PARP cleavage was “complete loss of PARP cleavage”.

**Q.** What about the “cleaved caspase 8 and cleaved PARP” value ([2]; combination with 50 μM chloroquine, 24 hours) of the same compound?
**A.** Its value is “reduced compared to CB002 alone”.

**Q.** What about the “expression of p21, DR5 and PARP cleavage” value ([2]; p73 siRNA knockdown cells) of the same compound?
**A.** Its value is “increase the expression of p53 target genes p21 and DR5, and associated PARP cleavage”.

**Q.** What about the p21 protein level ([3]; 8 and 24 hours) of the same compound?
**A.** The p21 protein level was “increase moderately in a dose dependent fashion”.

**Q.** What about the “wild-type p53 expression” value ([3]; 50 and 100 μM) of the same compound?
**A.** Its value is “unable to decrease the expression of wild-type p53”.

**Q.** And the “wild-type p53 protein level” value [3]?
**A.** Its value is “moderate increase in wild-type p53”.

**Q.** What about the p21 expression [4] of the same compound?
**A.** Its p21 expression is “absent”.

**Q.** What about the PUMA expression ([4]; 8 hours, over control) of the same compound?
**A.** Its PUMA expression is “increased expression”.

**Q.** What about the PUMA expression ([4]; 24 hours) of the same compound?
**A.** Its PUMA expression is “largely unchanged from control”.

**Q.** What about the p21 protein level ([5]; 8 hours) of the same compound?
**A.** Its p21 protein level is “increase moderately”.

**Q.** What about the p21 protein level ([5]; 24 hours) of the same compound?
**A.** Its p21 protein level is “no consistent difference”.

**Q.** What about the “mutant p53 degradation, with Ganetespib” value ([9]; 96 μM CB002 and/or 0.1 μM Ganetespib, 16 hours) of the same compound?
**A.** The value was “enhanced CB002-mediated mutant p53 degradation”.

**Q.** What about the “R175H p53 mutant expression” value ([9]; 100 and 150 μM, 16 and 24 hours) of the same compound?
**A.** Its value is “decrease R175H p53 mutant expression”.

**Q.** What about the “combination index with Ganetespib” value (SW480 cells [6]; 0-20 μM Ganetespib with 0-200 μM CB002, CompuSyn) of the same compound?
**A.** The value was “synergizes with Ganetespib”.

From patent US11203598B2, “Compounds for repressing cancer cell growth” (Institute For Cancer Research, priority 2018, dated 2021)
